Source: patent publication US5424303A, “Substituted aminophosphonate derivatives, process for their preparation and pharmaceutical compositions containing them” (Symphar SA, priority 1992, dated 1995)

Legend:
plasma cholesterol = assay: Hypocholesterolemic activity, plasma cholesterol in mice fed test compound in diet; type: in vivo, OF1 strain mice; conditions: for change in vivo at 180 mg/kg/day: Mus musculus, feed or water, 240 h, read-out: Plasma Cholesterol (% Control), 0.1% compound in food, 10 days, ca. 180 mg/kg daily, mouse; for decrease plasma cholesterol by: 0.1% in food
Description: A. Hypocholesterolemic activity
Mouse fed a normal diet is a convenient model which was proposed by several authors (P. Olivier et al, Atherosclerosis 70, 107-114, 1988) ,for the screening for hypocholesterolemic drugs. OF1 strain mice (Iffa Credo) weighing between 25 and 35 g were divided into 5 groups of 5 animals each, four groups received the test compounds and the fifth group served as control. The test compounds were dissolved in diethyl ether. The ether solution was added to food to obtain a final concentration of 0.1%. compound in food. Ether was then evaporated at room temperature. The animals were fed for 10 days, the dally food intake corresponds to ca. 180 mg/kg. After an overnight fast, they were sacrificed by decapitation under ether anesthesia. Blood samples were collected using EDTA as anticoagulant.
Plasma cholesterol was measured by an enzymatic test (DIAMED, Morat, Switzerland). The mean values of each group receiving the test or reference compounds were expressed as percent of mean value of the contemporary control.

[1] = tested on: lipid peroxidation (rat liver homogenate); assay: Antioxidant activity, inhibition of iron induced lipid peroxidation in liver homogenate; type: biochemical, Wistar rat; conditions: FeSO4, 37° C., 2 h; <25 μM where IC50 was not determined
Description: The liver of a Wistar rat anesthetized with ether was collected and homogenized in 4 volumes of phosphate buffer (+4° C., pH 7.4) by means of a Potter. After centrifugation at 2000 rpm for 10 min the supernatant obtained was kept at +4° C. Lipid peroxidation was carried out in presence of FeSOhd according to the method described by A. T. Quitaniha et at, Ann.
The mixture contained 1.7 ml phosphate buffer, 0.2 ml homogenate and 0.1 ml of a 2 mM FeSO4 solution. The test compounds were added in a volume of 61 μl of ethanol or DMSO. Oxydation was carried out at 37° C. for 2 h and was stopped by the addition of 20 μl of 2% ethanolic solution of BHT.

CCOP(=O)(OCC)C(c1cc(C(C)(C)C)c(O)c(C(C)(C)C)c1)N(C)Cc1cccnc1 (stereo not drawn) [Compound 49, Diethyl α-(3.,5-di-tert-butyl-4-hydroxyphenyl)-N-methyl-N-(3-picolyl)aminomethylphosphonate]
change in vivo at 180 mg/kg/day (plasma cholesterol): -19%
IC50 [1]: 12.8 µM

CCOP(=O)(OCC)C(NC1CCc2ccccc21)c1cc(C(C)(C)C)c(O)c(C(C)(C)C)c1 (centres unmarked) [Compound 46]
change in vivo at 180 mg/kg/day (plasma cholesterol): -8%
IC50 [1]: 3.8 µM

CCOP(=O)(OCC)C(NCCc1cccn1C)c1cc(C(C)(C)C)c(O)c(C(C)(C)C)c1 (centres unmarked) [Compound 37]
change in vivo at 180 mg/kg/day (plasma cholesterol): 12%
IC50 [1]: 4 µM

CCOP(=O)(OCC)C(NCCCCc1ccccc1)c1cc(C(C)(C)C)c(O)c(C(C)(C)C)c1 (stereo not drawn) [Compound 27, Diethyl α-(3 ,5-di-tert-butyl-4-hydroxyphenyl)-N-(4-phenylbutyl)-aminomethylphosphonate]
change in vivo at 180 mg/kg/day (plasma cholesterol): -43%
decrease plasma cholesterol by (plasma cholesterol; mouse, 10 days): more than 30%
IC50 [1]: 2.1 µM

CCOP(=O)(OCC)C(NCc1ccc(OC)c(OC)c1)c1cc(C(C)(C)C)c(O)c(C(C)(C)C)c1 (centres unmarked) [Compound 39]
change in vivo at 180 mg/kg/day (plasma cholesterol): -4%
IC50 [1]: 4.9 µM

Cc1cc(C(C)(C)C)c(O)c(C(C)(C)C)c1 [BHT, 2,6-di-tert-butyl-4-methylphenol, reference compound]
hypocholesterolemic activity (in words) (plasma cholesterol; this model (mouse)): no hypocholesterolemic activity
IC50 [1]: 5 µM

CCOP(=O)(OCC)C(NCc1ccc2c(c1)OCO2)c1cc(C(C)(C)C)c(O)c(C(C)(C)C)c1 (stereo not drawn) [Compound 38, Diethyl α-(3,5-di-tert-butyl4-hydroxyphenyl)-N-piperonyl-aminomethylphosphonate]
change in vivo at 180 mg/kg/day (plasma cholesterol): -40%
decrease plasma cholesterol by (plasma cholesterol; mouse, 10 days): more than 30%
IC50 [1]: 4.3 µM

CCOP(=O)(OCC)C(NCCc1ccccc1)c1cc(C(C)CC)c(O)c(C(C)CC)c1 (stereo not drawn) [Compound 73, Diethyl α-(3,5 di-sec-butyl-4-hydroxyphenyl)-N-(2-phenylethyl) aminomethylphosphonate]
change in vivo at 180 mg/kg/day (plasma cholesterol): -40%
decrease plasma cholesterol by (plasma cholesterol; mouse, 10 days): more than 30%
IC50 [1]: 2.9 µM

CCOP(=O)(OCC)C(NCCCc1ccccc1)c1cc(C(C)(C)C)c(OC)c(C(C)(C)C)c1 (stereo not drawn) [Compound 67, Diethyl α-(3.5-di-tert-butyl-4-methoxyphenyl)-N-(3-phenylpropyl)-aminomethylphosphonate]
change in vivo at 180 mg/kg/day (plasma cholesterol): -22%
IC50 [1]: > 25 µM

CCOP(=O)(OCC)C(NCCc1ccccc1)c1cc(C(C)C)c(O)c(C(C)C)c1 (centres unmarked) [Compound 74]
change in vivo at 180 mg/kg/day (plasma cholesterol): -16%
IC50 [1]: 4.4 µM

CCOP(=O)(OCC)C(Nc1ccc(O)c(C)c1)c1cc(C(C)(C)C)c(O)c(C(C)(C)C)c1 (centres unmarked) [Compound 5]
change in vivo at 180 mg/kg/day (plasma cholesterol): 2%
IC50 [1]: 1.3 µM

CCOP(=O)(OCC)C(NCCCc1ccccc1)c1cc(C(C)(C)C)c(O)c(C(C)(C)C)c1 (stereo not drawn) [Compound 22, Diethyl α-(3,5-di-tert-butyl-4-hydroxyphenyl)-N-(3-phenytpropyl)aminomethylphosphonate]
Plasma Cholesterol (% Control) (plasma cholesterol; 0.1% compound in food, 10 days, ca. 180 mg/kg daily, mouse): -53 % Control
decrease plasma cholesterol by (plasma cholesterol; mouse, 10 days): more than 30%
IC50 [1]: 4 µM

CCOP(=O)(OCC)C(NCc1ccccc1)c1cc(OC)c(O)c(OC)c1 (centres unmarked) [Compound 71]
change in vivo at 180 mg/kg/day (plasma cholesterol): 1%
IC50 [1]: > 25 µM

CCOP(=O)(OCC)C(Nc1ccc2c(c1)Cc1ccccc1-2)c1cc(C(C)(C)C)c(O)c(C(C)(C)C)c1 (centres unmarked) [Compound 48]
change in vivo at 180 mg/kg/day (plasma cholesterol): 3%
IC50 [1]: < 25 µM

CCOP(=O)(OCC)C(Nc1ccc2c(c1)CCC2)c1cc(C(C)(C)C)c(O)c(C(C)(C)C)c1 (centres unmarked) [Compound 47]
change in vivo at 180 mg/kg/day (plasma cholesterol): -2%
IC50 [1]: 2.7 µM

CCOP(=O)(OCC)C(NCCc1ccc(C)cc1)c1cc(C(C)(C)C)c(O)c(C(C)(C)C)c1 (centres unmarked) [Compound 14]
change in vivo at 180 mg/kg/day (plasma cholesterol): -6%
IC50 [1]: < 25 µM

CCOP(=O)(OCC)C(NC1CCCCC1)c1cc(C(C)(C)C)c(O)c(C(C)(C)C)c1 (centres unmarked) [Compound 65]
change in vivo at 180 mg/kg/day (plasma cholesterol): 7%
IC50 [1]: < 25 µM

COP(=O)(OC)C(c1cc(C(C)(C)C)c(O)c(C(C)(C)C)c1)N(CCCc1ccccc1)C(C)=O (centres unmarked) [Compound 59]
change in vivo at 180 mg/kg/day (plasma cholesterol): -36%
IC50 [1]: < 25 µM

CCOP(=O)(OCC)C(NC(C)(C)C)c1cc(C(C)(C)C)c(O)c(C(C)(C)C)c1 (centres unmarked) [Compound 1]
change in vivo at 180 mg/kg/day (plasma cholesterol): 8%
IC50 [1]: > 25 µM

CCOP(=O)(OCC)C(NCc1cccnc1)c1cc(C(C)(C)C)c(O)c(C(C)(C)C)c1 (stereo not drawn) [Compound 42, Diethyl α-(3,5-di-tert-butyl-4-hydroxyphenyl)-N-(3-picolyl)-aminomethylphosphonate]
change in vivo at 180 mg/kg/day (plasma cholesterol): -43%
decrease plasma cholesterol by (plasma cholesterol; mouse, 10 days): more than 30%
IC50 [1]: 12.8 µM

CCOP(=O)(OCC)C(NCCc1ccccc1)c1cc(C)c(O)c(C(C)(C)C)c1 (centres unmarked) [Compound 75]
change in vivo at 180 mg/kg/day (plasma cholesterol): -12%
IC50 [1]: 4.8 µM

CCOP(=O)(OCC)C(Nc1ccccc1)c1cc(C(C)(C)C)c(O)c(C(C)(C)C)c1 (centres unmarked) [Compound 3]
change in vivo at 180 mg/kg/day (plasma cholesterol): -30%
decrease plasma cholesterol by (plasma cholesterol; mouse, 10 days): more than 30%
IC50 [1]: 5.1 µM

CCOP(=O)(OCC)C(NC(C)CCc1ccccc1)c1cc(C(C)(C)C)c(O)c(C(C)(C)C)c1 (centres unmarked) [Compound 30]
change in vivo at 180 mg/kg/day (plasma cholesterol): -12%
IC50 [1]: 15.6 µM

CCOP(=O)(OCC)C(Nc1ccc(Cl)cc1)c1cc(C(C)(C)C)c(O)c(C(C)(C)C)c1 (centres unmarked) [Compound 6]
change in vivo at 180 mg/kg/day (plasma cholesterol): -17%
IC50 [1]: < 25 µM

CCOc1ccc(NC(c2cc(C(C)(C)C)c(O)c(C(C)(C)C)c2)P(=O)(OCC)OCC)cc1 (centres unmarked) [Compound 9]
change in vivo at 180 mg/kg/day (plasma cholesterol): -31%
decrease plasma cholesterol by (plasma cholesterol; mouse, 10 days): more than 30%
IC50 [1]: < 25 µM

CCOP(=O)(OCC)C(Nc1ccc(OC)cc1)c1cc(C(C)(C)C)c(O)c(C(C)(C)C)c1 (stereo not drawn) [Compound 7, Diethyl α-(3,5-di-tert-butyl-4-hydroxyphenyl)-N-(4-methoxyphenyl)-aminomethylphosphonate]
change in vivo at 180 mg/kg/day (plasma cholesterol): -47%
decrease plasma cholesterol by (plasma cholesterol; mouse, 10 days): more than 30%
IC50 [1]: < 25 µM

CCOP(=O)(OCC)C(NCCc1ccccc1)c1cc(C(C)(C)C)c(O)c(C(C)(C)C)c1 (centres unmarked) [Compound 13]
change in vivo at 180 mg/kg/day (plasma cholesterol): -28%
IC50 [1]: 4.9 µM

COP(=O)(OC)C(NCCc1ccc(Cl)cc1)c1cc(C(C)(C)C)c(O)c(C(C)(C)C)c1 (centres unmarked) [Compound 16]
change in vivo at 180 mg/kg/day (plasma cholesterol): -28%
IC50 [1]: 4.9 µM

CCCCOP(=O)(OCCCC)C(NCCCc1ccccc1)c1cc(C(C)(C)C)c(O)c(C(C)(C)C)c1 (centres unmarked) [Compound 25]
change in vivo at 180 mg/kg/day (plasma cholesterol): -4%
IC50 [1]: < 25 µM

CCOP(=O)(OCC)C(NCCc1ccc(Cl)cc1)c1ccc(O)cc1 (centres unmarked) [Compound 76]
change in vivo at 180 mg/kg/day (plasma cholesterol): -16%
IC50 [1]: > 25 µM

CCOP(=O)(OCC)C(NCCc1ccc(Cl)cc1)c1cc(C(C)(C)C)c(O)c(C(C)(C)C)c1 (stereo not drawn) [Compound 17, Diethyl α-(3,5-di-tert-butyl-4-hydroxyphenyl)-N-[2-(4-chlorophenyl)ethyl]-aminomethylphosphonate]
change in vivo at 180 mg/kg/day (plasma cholesterol): -43%
decrease plasma cholesterol by (plasma cholesterol; mouse, 10 days): more than 30%
IC50 [1]: 5.3 µM

CCCCOP(=O)(OCCCC)C(NCCc1ccc(Cl)cc1)c1cc(C(C)(C)C)c(O)c(C(C)(C)C)c1 (centres unmarked) [Compound 20]
change in vivo at 180 mg/kg/day (plasma cholesterol): -9%
IC50 [1]: 3.4 µM

CCOP(=O)(OCC)C(c1cc(C(C)(C)C)c(O)c(C(C)(C)C)c1)N(CCc1ccccc1)C(C)=O (centres unmarked) [Compound 53]
IC50 [1]: < 25 µM
